According to patent US20190152992A1, “BENZODIOXANE DERIVATIVES AND THEIR PHARMACEUTICAL USE” (Orion Corporation, priority 2016, published 2019):
Structures can show the parent of a compound that is named as a salt.

What was measured:
human alpha2C receptors = molecular target: T1, human alpha2C receptors (Homo sapiens, UniProt P18825); experiment: Determination of alpha2C antagonistic activity in vitro (FLIPR calcium assay); conditions: for Kb: Alpha 2C Adrenaline Kb, Kb calculated from IC50 with the Cheng-Prusoff equation, adrenaline as agonist, CHO cells, human alpha2C
T1 sequence (P18825 1-462): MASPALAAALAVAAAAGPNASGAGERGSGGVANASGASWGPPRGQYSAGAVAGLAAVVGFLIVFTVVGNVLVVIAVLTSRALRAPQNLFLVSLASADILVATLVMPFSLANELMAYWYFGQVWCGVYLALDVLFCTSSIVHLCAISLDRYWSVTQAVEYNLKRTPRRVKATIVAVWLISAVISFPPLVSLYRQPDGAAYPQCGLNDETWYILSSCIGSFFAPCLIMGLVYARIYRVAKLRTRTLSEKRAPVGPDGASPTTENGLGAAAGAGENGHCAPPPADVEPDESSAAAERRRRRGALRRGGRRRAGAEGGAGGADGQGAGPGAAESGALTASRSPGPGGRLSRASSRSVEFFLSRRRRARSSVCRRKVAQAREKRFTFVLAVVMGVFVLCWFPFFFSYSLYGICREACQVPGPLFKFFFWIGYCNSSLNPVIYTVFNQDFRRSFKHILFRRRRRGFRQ

human alpha2A receptors = molecular target: T2, human alpha2A receptors (Homo sapiens, UniProt P08913); experiment: cell-based
T2 sequence (P08913 1-465): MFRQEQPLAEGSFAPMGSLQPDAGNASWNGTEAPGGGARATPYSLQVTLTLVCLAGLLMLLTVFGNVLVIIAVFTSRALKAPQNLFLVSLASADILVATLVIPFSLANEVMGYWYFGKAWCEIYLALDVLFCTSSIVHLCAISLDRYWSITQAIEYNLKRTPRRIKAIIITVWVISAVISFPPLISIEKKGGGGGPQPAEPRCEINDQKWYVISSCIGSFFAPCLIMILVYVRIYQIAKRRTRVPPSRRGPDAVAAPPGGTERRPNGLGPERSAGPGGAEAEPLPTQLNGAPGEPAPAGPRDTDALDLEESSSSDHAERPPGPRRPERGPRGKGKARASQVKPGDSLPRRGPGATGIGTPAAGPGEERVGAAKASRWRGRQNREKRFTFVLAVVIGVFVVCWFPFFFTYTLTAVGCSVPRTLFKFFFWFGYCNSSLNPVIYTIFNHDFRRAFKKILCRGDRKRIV

Row | IC50 (human alpha2C receptors) | Kb (human alpha2C receptors) | IC50 (human alpha2A receptors) | Kb (human alpha2A receptors) | Compound
1 | 1.38 nM | 0.14 nM | > 10000 nM | > 449 nM | O=C1C(=O)N([C@H]2CCCN(C[C@H]3COc4ccccc4O3)C2)C(=O)N1Cc1cccnc1 [example 143, 1-((S)-1-(((S)-2,3-Dihydrobenzo[b][1,4]dioxin-2-yl)methyl)piperidin-3-yl)-3-(pyridin-3-ylmethyl)imidazolidine-2,4,5-trione]
2 | 0.85 nM | 0.09 nM | 2780 nM | 125 nM | c1ccc2c(c1)OC[C@H](CN1CCC[C@H](n3nnc4ccccc43)C1)O2 [example 145, 1-((S)-1-(((S)-2,3-Dihydrobenzo[b][1,4]dioxin-2-yl)methyl)piperidin-3-yl)-1H-benzo[d][1,2,3]triazole]
3 | 1050 nM | 105 nM | 7190 nM | 323 nM | O=S1(=O)Nc2ccccc2N1[C@H]1CCCN(C[C@H]2COc3ccccc3O2)C1 [example 146, 1-((S)-1-(((S)-2,3-Dihydrobenzo[b][1,4]dioxin-2-yl)methyl)piperidin-3-yl)-1,3-dihydrobenzo[c][1,2,5]thiadiazole 2,2-dioxide]
4 | 228 nM | 22.9 nM | > 10000 nM | > 449 nM | Cn1c(=O)n([C@H]2CCCN(C[C@H]3COc4ccccc4O3)C2)c2ccccc21 [example 147, 1-((S)-1-(((S)-2,3-Dihydrobenzo[b][1,4]dioxin-2-yl)methyl)piperidin-3-yl)-3-methyl-1H-benzo[d]imidazol-2(3H)-one]
5 | 3220 nM | 324 nM | > 10000 nM | > 449 nM | O=c1n(-c2ccccc2)c2ccccc2n1[C@H]1CCCN(C[C@H]2COc3ccccc3O2)C1 [example 149, 1-((S)-1-(((S)-2,3-Dihydrobenzo[b][1,4]dioxin-2-yl)methyl)piperidin-3-yl)-3-phenyl-1H-benzo[d]imidazol-2(3H)-one]
6 | < 0.1 nM | < 0.01 nM | 4480 nM | 201 nM | Cc1nc2ccccc2n1[C@H]1CCCN(C[C@H]2COc3ccccc3O2)C1 [example 150, 1-((S)-1-(((S)-2,3-Dihydrobenzo[b][1,4]dioxin-2-yl)methyl)piperidin-3-yl)-2-methyl-1H-benzo[d]imidazole]
7 | < 0.1 nM | < 0.01 nM | 6160 nM | 276 nM | COCc1nc2ccccc2n1[C@H]1CCCN(C[C@H]2COc3ccccc3O2)C1 [example 151, 1-((S)-1-(((S)-2,3-Dihydrobenzo[b][1,4]dioxin-2-yl)methyl)piperidin-3-yl)-2-(methoxymethyl)-1H-benzo[d]imidazole]
8 | 69.8 nM | 7.03 nM | 288 nM | 13 nM | CN(C)Cc1nc2ccc(Cl)cc2n1[C@H]1CCCN(C[C@H]2COc3ccccc3O2)C1 [example 152, 1-(6-Chloro-1-((S)-1-(((S)-2,3-dihydrobenzo[b][1,4]dioxin-2-yl)methyl)piperidin-3-yl)-1H-benzo[d]imidazol-2-yl)-N,N-dimethylmethanamine]
9 | 3580 nM | 361 nM | > 10000 nM | > 449 nM | CNCc1nc2ccc(Cl)cc2n1[C@H]1CCCN(C[C@H]2COc3ccccc3O2)C1 [example 153, 1-(6-Chloro-1-((S)-1-(((S)-2,3-dihydrobenzo[b][1,4]dioxin-2-yl)methyl)piperidin-3-yl)-1H-benzo[d]imidazol-2-yl)-N-methylmethanamine]
10 | < 0.1 nM | < 0.01 nM | > 10000 nM | > 449 nM | O=c1[nH]c2c(F)cccc2n1[C@H]1CCCN(C[C@H]2COc3ccccc3O2)C1 [example 154, 1-((S)-1-(((S)-2,3-Dihydrobenzo[b][1,4]dioxin-2-yl)methyl)piperidin-3-yl)-4-fluoro-1H-benzo[d]imidazol-2(3H)-one]
11 | 56 nM | 5.64 nM | > 10000 nM | > 449 nM | COc1ccc2nc(C)n([C@H]3CCCN(C[C@H]4COc5ccccc5O4)C3)c2n1 [example 155, 3-((S)-1-(((S)-2,3-Dihydrobenzo[b][1,4]dioxin-2-yl)methyl)piperidin-3-yl)-5-methoxy-2-methyl-3H-imidazo[4,5-b]pyridine]

Second part, the compound before the results:

Row | Compound | IC50 (human alpha2C receptors) | Kb (human alpha2C receptors) | IC50 (human alpha2A receptors) | Kb (human alpha2A receptors)
12 | CC(C)N1C(=O)C(=O)N([C@H]2CCCN(C[C@H]3COc4ccccc4O3)C2)C1=O [example 130, 1-((S)-1-(((S)-2,3-Dihydrobenzo[b][1,4]dioxin-2-yl)methyl)-piperidin-3-yl)-3-isopropylimidazolidine-2,4,5-trione] | 0.256 nM | 0.028 nM | 6590 nM | 296 nM
13 | O=C1C(=O)N([C@H]2CCCN(C[C@H]3COc4ccccc4O3)C2)C(=O)N1Cc1ccccc1 [example 131, 1-Benzyl-3-((S)-1-(((S)-2,3-dihydrobenzo[b][1,4]dioxin-2-yl)methyl)piperidin-3-yl)imidazolidine-2,4,5-trione] | 1.64 nM | 0.165 nM | 5700 nM | 256 nM
14 | CCCN1C(=O)C(=O)N([C@H]2CCCN(C[C@H]3COc4ccccc4O3)C2)C1=O [example 132, 1-((S)-1-(((S)-2,3-Dihydrobenzo[b][1,4]dioxin-2-yl)methyl)-piperidin-3-yl)-3-propylimidazolidine-2,4,5-trione] | 0.308 nM | 0.031 nM | > 10000 nM | > 449 nM
15 | CC(C)(C)N1C(=O)C(=O)N([C@H]2CCCN(C[C@H]3COc4ccccc4O3)C2)C1=O [example 134, 1-tert-Butyl-3-((S)-1-(((S)-2,3-dihydrobenzo[b][1,4]dioxin-2-yl)methyl)piperidin-3-yl)imidazolidine-2,4,5-trione] | 0.796 nM | 0.08 nM | > 10000 nM | > 449 nM
16 | CN(C)CCN1C(=O)C(=O)N([C@H]2CCCN(C[C@H]3COc4ccccc4O3)C2)C1=O [example 135, 1-((S)-1-(((S)-2,3-Dihydrobenzo[b][1,4]dioxin-2-yl)methyl)-piperidin-3-yl)-3-(2-(dimethylamino)ethyl)imidazolidine-2,4,5-trione] | 444 nM | 44.7 nM | > 10000 nM | > 449 nM
17 | O=C1C(=O)N([C@H]2CCCN(C[C@H]3COc4ccccc4O3)C2)C(=O)N1C1CCNCC1 [example 137, 1-((S)-1-(((S)-2,3-Dihydrobenzo[b][1,4]dioxin-2-yl)methyl)piperidin-3-yl)-3-(piperidin-4-yl)imidazolidine-2,4,5-trione dihydrochloride] | 5.5 nM | 0.554 nM | > 10000 nM | > 449 nM
18 | CN1C(=O)C(=O)N([C@H]2CCCN(C[C@H]3COc4ccccc4O3)C2)C1=O [example 138, 1-((S)-1-(((S)-2,3-Dihydrobenzo[b][1,4]dioxin-2-yl)methyl)piperidin-3-yl)-3-methylimidazolidine-2,4,5-trione] | 4.35 nM | 0.438 nM | > 10000 nM | > 449 nM
19 | CC(=O)N1CCC(N2C(=O)C(=O)N([C@H]3CCCN(C[C@H]4COc5ccccc5O4)C3)C2=O)CC1 [example 139, 1-(1-Acetylpiperidin-4-yl)-3-((S)-1-(((S)-2,3-dihydrobenzo[b][1,4]-dioxin-2-yl)methyl)piperidin-3-yl)imidazolidine-2,4,5-trione] | 0.113 nM | 0.012 nM | 9830 nM | 441 nM
20 | O=C1C(=O)N([C@H]2CCCN(C[C@H]3COc4ccccc4O3)C2)C(=O)N1Cc1ccncc1 [example 140, 1-((S)-1-(((S)-2,3-Dihydrobenzo[b][1,4]dioxin-2-yl)methyl)piperidin-3-yl)-3-(pyridin-4-ylmethyl)imidazolidine-2,4,5-trione] | 2.19 nM | 0.22 nM | > 10000 nM | > 449 nM
21 | CC(C)CN1C(=O)C(=O)N([C@H]2CCCN(C[C@H]3COc4ccccc4O3)C2)C1=O [example 141, 1-((S)-1-(((S)-2,3-Dihydrobenzo[b][1,4]dioxin-2-yl)methyl)piperidin-3-yl)-3-isobutylimidazolidine-2,4,5-trione] | 0.446 nM | 0.045 nM | > 10000 nM | > 449 nM
22 | O=C1C(=O)N([C@H]2CCCN(C[C@H]3COc4ccccc4O3)C2)C(=O)N1Cc1ccccn1 [example 142, 1-((S)-1-(((S)-2,3-Dihydrobenzo[b][1,4]dioxin-2-yl)methyl)piperidin-3-yl)-3-(pyridin-2-ylmethyl)imidazolidine-2,4,5-trione] | 0.846 nM | 0.085 nM | > 10000 nM | > 449 nM
